# From publication PMC6158189, “A pharmacological probe identifies cystathionine β-synthase as a new negative regulator for ferroptosis” (Cell Death & Disease, 2018)
# What was measured:
# HEK293T cells = assay: total Hcys in HEK293T cells (ELISA); format: cell-based; conditions: 5 or 10 μM, 12 h
# Protocol: Fig. 3 The effect of CH004 on the activity of endogenous hCBS in cells. a CH004 dose-dependently elevates the levels of Hcys in HepG2 and HEK293T cells. HepG2 cells or HEK293T cells were incubated with indicated CH004 or DMSO (control) for 12 h. The amount of total Hcys in cells was measured by ELISA using Axis® Homocysteine EIA kit (IBL, AX51301) (“Materials and Methods” section). […] HepG2 cells were treated with indicated DMSO, CH004 or HA for 8 h before the staining with AzMC probe. The amount of the H2S (blue) was quantified and is shown in (c). Bars, 50 μm. Control (CTR), DMSO group (100%). A representative fluorescence image from three independent experiments is shown. Means ± SDS (n = 3). d CH004 elevates Hcys in the peripheral blood of rats. The total Hcys of the blood samples collected from the anesthetized rats at the 75 min time point (Materials and Methods) were quantified by ELISA (see above). Means ± SDS (n = 6).
# HepG2 or HEK293T cells were seeded in poly-D-Lys-coated 6-well plates at a density of ∼ 5 × 10^5 cells per well for one day, treated with DMSO or various concentrations of compounds for another 12 h before the collection by scraping or trypsinization. […]
# [1] = test system: rat hemorrhagic shock model; assay: hemorrhagic shock rat model; format: in vivo; conditions: 3 mg/kg intraperitoneal
# Protocol: Fig. 3 The effect of CH004 on the activity of endogenous hCBS in cells. a CH004 dose-dependently elevates the levels of Hcys in HepG2 and HEK293T cells. HepG2 cells or HEK293T cells were incubated with indicated CH004 or DMSO (control) for 12 h. The amount of total Hcys in cells was measured by ELISA using Axis® Homocysteine EIA kit (IBL, AX51301) (“Materials and Methods” section). […] HepG2 cells were treated with indicated DMSO, CH004 or HA for 8 h before the staining with AzMC probe. The amount of the H2S (blue) was quantified and is shown in (c). Bars, 50 μm. Control (CTR), DMSO group (100%). A representative fluorescence image from three independent experiments is shown. […] The total Hcys of the blood samples collected from the anesthetized rats at the 75 min time point (Materials and Methods) were quantified by ELISA (see above). […]
# Figure S10. […] The hemorrhagic shock model was constructed by blood withdrawing (BW) from the carotid artery of anesthetized male Sprague-Dawley rats (280-320 g), and the mean arterial blood pressure (MAP) was monitored by an MP30B-CE pressure transducer (BIOPAC, Santa Barbara, CA, USA). […] Then, 15 min later, CH004 (3 mg/kg), PAG (50 mg/kg) or vehicle (2% DMSO in saline) was intraperitoneally administered to the rats, and the MAP was monitored continuously for another 45 min. MAP was continually recorded during the experiments. […]
# [2] = test system: HEK293T cells expressing CBS Q222A mutant; assay: cell viability of HEK293T stable line expressing CBS Q222A; format: cell-based; conditions: 10 µM, 24 h
# Protocol: Figure S15. The mode of actions for CH004 in cells. […] Indicated HEK293T stable cell lines were treated with CH004 at a concentration of 10 µM for 24 h, and the cell viability was then measured using the CellTiter96® Aqueous One Solution Cell Proliferation Assay (Promega). Means ± SDs (n=3). (B-C) CH004 or erastin triggers ferroptosis in mouse embryonic fibroblasts (MEF). WT MEF cells were treated with CH004 or erastin at indicated concentrations in the presence or the absence of 500 µM DFO for 24 h before measuring the lipid ROS with 2 μM BODIPY® 581/591 C11 (Materials and methods). […] Erastin at micromolar concentrations were incubated with HepG2 cells for 24 h before measuring the lipid ROS (see above and Materials and methods). […] Means ± SDs (n=3). […] CH004 or erastin at a concentration of 20 µM was incubated with HepG2 cells for 48 h or 72 h in the presence or the absence of 100 µM DFO. The cell viability was accordingly quantified using the CellTiter96® Aqueous One Solution Cell Proliferation Assay (Promega) and the results were shown as percentages of DMSO (control, 100%). Means ± SDs (n=3). All the experiments were independently repeated at least twice and one representative result is present. Table S1 The inhibitory effects of CH004 on purified hCBS, hCSE and hDDC.
# [3] = test system: HepG2, HEK293T, Huh7, H22, Panc-28, HCT116 and MDA-MB-231 cells; assay: cell proliferation, all tested cell lines; format: cell-based; conditions: 24 h; read-out: IC50 range, proliferation of all tested cells
# Protocol: With a bioactive and selective inhibitor of CBS in hand, we examined the effect of CH004 on the proliferation of HepG2 and HEK293T cells as well as hepatocellular carcinoma Huh7 and H22, pancreatic cancer Panc-28, colon cancer HCT116 and breast cancer MDA-MB-231 cells. […] HCT116 was the most affected cell line with an IC50 of 4 μM amongst tested cell lines (Fig. 4a and Supplementary Figure 11). […] To confirm that CH004-mediated inhibitory effects are due to the specific inhibition of hCBS, we generated hCBS-overexpressed (293T-CBS WT) stable cell lines by transducing HEK293T cells with lentivirus carrying hCBS WT genes. […] In supporting the pros of CBS on the proliferation, knock-down of CBS indeed substantially retards cell proliferation in HEK293T cells (Supplementary Figure 12c, d). […] Importantly, CH004 could largely retard the colony formation of HepG2 cells with an IC50 of ~8 μM (Supplementary Figure 12e–g).
# To measure cell viability and cytotoxicity, HepG2, HEK293T, Huh-7, H22, Panc-28, HCT116 and MDA-MB-231 cells were seeded at a density of ~ 2 × 10^4 cells per well in 96-well plates (Coring, NY, USA) for one day, followed by incubation with DMSO or various concentrations of tested compound for indicated times. […]
structure (smiles),measurement,setting,value
"Cn1nc(Cc2ccccc2)nc2c(=O)n(C)c(=O)nc1-2 [CH004, 3-benzyl-1,6-dimethylpyrimido[5,4-e][1,2,4]triazine-5,7(1H,6H)-dione]",increase of Hcys,HEK293T cells,~ 2 fold
same,increase of the level of Hcys in blood,[1]; 75 min time point,~ 2 fold
same,effect on mean arterial pressure (MAP),[1]; indicator for in vivo CSE inhibition,does not affect
same,cell death triggered by CH004 in cells expressing CH004-insensitive CBS Q222A,[2],partially rescues
same,IC50,[3],4 to 25 µM
